Assays:
human PAI-1 = human PAI-1 (Homo sapiens, UniProt P05121); assay: Assay for determining IC50 of inhibition of PAI-1 (active PAI-1 bound to tPA-coated plate, antibody detection); type: binding; details: human PAI-1 50 ng/ml, pH 7.5, tPA-coated plate
Protocol: Assay for Determining IC50 of Inhibition of PAI-1
This assay was based upon the non-SDS dissociable interaction between tPA and active PAI-1. Assay plates were initially coated with human tPA (10 μg/ml). Test compounds were dissolved in DMSO at 10 mM, then diluted with physiologic buffer (pH 7.5) to a final concentration of 1–50 μM. The test compounds were incubated with human PAI-1 (50 ng/ml) for 15 minutes at room temperature. The tPA-coated plate was washed with a solution of 0.05% Tween 20 and 0.1% BSA, then the plate is blocked with a solution of 3% BSA. An aliquot of the test compound/PAI-1 solution was then added to the tPA-coated plate, incubated at room temperature for 1 hour, and washed. Active PAI-1 bound to the plate was assessed by adding an aliquot of a 1:1000 dilution of the 33B8 monoclonal antibody against human PAI-1, and incubating the plate at room temperature for 1 hour (Molecular Innovations, Royal Oak, Mich.). […] The plate was incubated 45 minutes at room temperature, and color development is determined at OD405nm. The quantitation of active PAI-1 bound to tPA at varying concentrations of the test compound was used to determine the IC50. Results were analyzed using a logarithmic best-fit equation. The assay sensitivity is 5 ng/ml of human PAI-1 as determined from a standard curve ranging from 0–100 ng/ml.

[1] = target: T1, recombinant human plasminogen activator inhibitor-1 (Homo sapiens, UniProt P05121); assay: Primary screen for the PAI-1 inhibition (residual tPA activity, chromogenic substrate Spectrozyme-tPA); type: biochemical; details: 25 uM test compound; 140 nM PAI-1, 70 nM tPA, pH 6.6
T1 construct: purchased Molecular Innovations, Royal Oak, Mich
T1 sequence (P05121 24-402): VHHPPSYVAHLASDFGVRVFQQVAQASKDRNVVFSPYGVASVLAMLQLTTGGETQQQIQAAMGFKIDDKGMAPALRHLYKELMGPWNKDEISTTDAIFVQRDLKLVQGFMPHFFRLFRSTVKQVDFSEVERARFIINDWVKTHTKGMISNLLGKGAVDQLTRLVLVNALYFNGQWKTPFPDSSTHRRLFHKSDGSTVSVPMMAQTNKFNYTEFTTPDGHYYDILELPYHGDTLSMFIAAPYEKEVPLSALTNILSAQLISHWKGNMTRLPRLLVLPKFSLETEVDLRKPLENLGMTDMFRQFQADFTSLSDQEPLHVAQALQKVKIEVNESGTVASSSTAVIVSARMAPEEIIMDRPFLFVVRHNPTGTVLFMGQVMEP
Protocol: Primary Screen for the PAI-1 Inhibition The ability of the compounds of this invention to inhibit plasminogen activator inhibitor-1 was established by the following experimental procedures: Test compounds were dissolved in DMSO at a final concentration of 10 mM, then diluted 100× in physiologic buffer. The inhibitory assay was initiated by the addition of the test compound (1–100 μM final concentration, maximum DMSO concentration of 0.2%) in a pH 6.6 buffer containing 140 nM recombinant human plasminogen activator inhibitor-1 (Molecular Innovations, Royal Oak, Mich.). Following a 1 hour incubation at room temperature, 70 nM of recombinant human tissue plasminogen activator (tPA) was added, and the combination of the test compound, PAI-1 and tPA was incubated for an additional 30 minutes. Following the second incubation, Spectrozyme-tPA (American Diagnostica, Greenwich, Conn.), a chromogenic substrate for tPA, was added and absorbance was read at 405 nm at 0 and 60 minutes. Relative PAI-1 inhibition was equal to the residual tPA activity in the presence of the test compounds and PAI-1. Control treatments included the complete inhibition of tPA by PAI-1 at the molar ratio employed (2:1), and the absence of any effect of the test compound on tPA alone.

Chain of human PAI-1 (P05121 24-402): as above

Row | IC50 (human PAI-1) | melting point | SMILES | inhibition at 25 µM [1]
1 | 29 µM | 120 to 121 °C | Cc1cccc(-c2ccc3c(c2)c(C(=O)C(=O)NCC(=O)O)cn3Cc2ccc(C(C)(C)C)cc2)c1 [Example 1, {[[1-(4-tert-butylbenzyl)-5-(3-methylphenyl)-1H-indol-3-yl](oxo)acetyl]amino}acetic acid] | 
2 | 28 µM | 211 to 212 °C (dec.) | O=C(O)CNC(=O)C(=O)c1cn(Cc2ccccc2)c2ccc(-c3ccc(OC(F)(F)F)cc3)cc12 [Example 2, 2-[(2-{1-Benzyl-5-[4-(trifluoromethoxy)phenyl]-1H-indol-3-yl}-2-oxoacetyl)amino]acetic acid] | 

Row | SMILES | IC50 (human PAI-1) | melting point | inhibition at 25 µM [1]
3 | CN(CC(=O)O)C(=O)C(=O)c1cn(Cc2ccccc2)c2ccc(-c3cccc(OC(F)(F)F)c3)cc12 [Example 3, 2-[(2-{1-Benzyl-5-[3-(trifluoromethoxy)phenyl]-1H-indol-3-yl}-2-oxoacetyl)(methyl)amino]acetic acid] |  | 178 to 179 °C | 24%

Source: patent US7056943B2, “Substituted indole oxo-acetyl amino acetic acid derivatives as inhibitors of plasminogen activator inhibitor-1 (PAI-1)” (Wyeth, priority 2002, dated 2006)
